Values of other authors in patent publication US20090162858A1, “Orthogonal chemical inducer of dimerization” (priority 2007, published 2009).

Tested on: wild type Saccrharomyces cerevisiae
Conditions: [Game, 1975]

Structure (SMILES)	growth of wild type yeast
CN(Cc1cnc2nc(N)nc(N)c2n1)c1ccc(C(=O)N[C@@H](CCC(=O)O)C(=O)O)cc1 [Methotrexate]	inhibits growth
COc1cc(Cc2cnc(N)nc2N)cc(OC)c1OC [Trimethoprim, 2,4-diamino-5-(3,4,5-trimethoxybenzyl)pyrimidine]	does not
